# Experimental data reported in article PMC10846744, “Cathelicidin peptide analogues inhibit EV71 infection through blocking viral entry and uncoating” (PLOS Pathogens, 2024).
# Where no end group is shown, it is not given here.
# How the values were obtained:
# EV71 virus = experiment: Time-of-addition study; type: cell-based, enterovirus 71 (EV71)
# Description: Fig 2 LL-18 and FF-18 inhibit EV71 infection at the early stages of infection. (A-B) NanoLuc-EV71 reporter virus (A) or EV71 virus (MOI = 1, B) was pre-incubated with 1.5 μM LL-18 or FF-18 for 1 hr before they were used to infect RD cells. Luciferase (A) or viral RNA (B) was determined at indicated time points. Viral RNAs were normalized to mock treated cells at 1 h.p.i. ***, P<0.001. (C-E) EV71 virus (MOI = 1) was either pre-incubated with 1.5 μM LL-18 before infection (-2 and -1 time points), added simultaneously with LL-18 (0 time point) or LL-18 was added at indicated time points post-infection (1, 2, 4, 7 time points) and viral VP1 expression (C), cell viability (D), or viral titer (E) was determined 24 h.p.i. ns, not significant; **, P<0.01; ***, P<0.001. (F-H) EV71 virus (MOI = 1) was either pre-incubated with 1.5 μM FF-18 before infection (-2 and -1 time points), added simultaneously with FF-18 (0 time point) or FF-18 was added at indicated time points post-infection (1, 2, 4, 7 time points) and viral VP1 expression (F), cell viability (G), or viral titer (H) was determined 24 h.p.i. ns, not significant; **, P<0.01; ***, P<0.001.
# Synthetic peptides were purchased from Bioyears Co. Ltd. (Wuhan, China) with purity of more than 95% and dissolved in PBS. […] Cell viability, viral titer, or viral protein expression was determined 24 h.p.i. […]
# EV71 virions = experiment: Viral particle stability thermal release assay (PaSTRY); set-up: species or system enterovirus 71 (EV71); conditions: EV71 MOI = 10 pre-incubated with LL-18 or NaCl, SYBR green II, heated 25°C to 80°C; PBS control around 45°C
# Description: Fig 6 LL-18 stabilizes the viral particles by inhibiting uncoating. (A) EV71 virus (MOI = 10) was pre-incubated with PBS, indicated amount of LL-18 or NaCl for 1 hr and then mixed with SYBR green dyes II before they were heated to indicated temperatures. The fluorescent signals were measured and plotted against temperature. PBS was used as a negative control. (B) EV71 virus (MOI = 10) was pre-incubated with PBS, LL-18, or 12s for 2 hrs. Half of the samples were then treated with 1.5 μg SCARB2 protein and incubated at 37°C for 2 hrs at pH 5.5. Samples were then subjected to ultracentrifugation as detailed in materials and methods. The numbers above represent the fractions collected from top to bottom.
# EV71 viruses were preincubated with either PBS, NaCl or the indicated amount of LL-18 at room temperature for 2 hrs, before Sybr green II dye (3× working concentration, Solarbio, China) and RNase inhibitor (1 U/μL, Thermo Scientific) were added. The mixture was heated from 25°C to 80°C with an increment of 0.5°C for 30 seconds, and the fluorescence from SYBR green was monitored with a QuantGene 9600 real-time PCR system (Bioer, China).
# [1] = tested on: mouse-adapted EV71 (mEV71); experiment: mEV71 infection model in 6-day-old ICR mice; type: in vivo
# Description: Fig 7 LL-18 inhibits mEV71 infection in vivo. (A) mEV71 was pre-treated with PBS or LL-18 and used to infect 6-day old ICR mice. The survival rate of mice infected with the mEV71 virus with or without LL-18 was recorded. (B) Mice infected with the mEV71 virus with or without LL-18 pre-treatment were sacrificed 1 day post infection (d.p.i.) and viral titers from brain and muscle tissues were determined. ***, P<0.001. (C) H&E staining of muscle tissue from mice infected with the mEV71 virus with or without LL-18. Blue arrows indicate infiltrated neutrophils. Bar, 20μm.
# To prepare the mouse-adapted EV71 strain, the parental EV71 virus was intraperitoneally (i.p.) inoculated into 3-day-old ICR mice. Virus was then isolated from the brain tissue and inoculated into RD cells to amplify virus. […] 1×10^9 PFU/ml mEV71 was then incubated with an equal volume of PBS or LL-18 (20 mg/kg) for one hour, and used to infect 6-day-old ICR newborn mice intraperitoneally. Mice were monitored daily to record survival rate. Meanwhile, brain and muscle tissues were collected 1-day post infection for viral titration or H&E staining.
# Supplementary file ppat.1011967.s005.tif: S5 Fig LL-18 inhibits mEV71 infection in vivo. (A) 6-day-old ICR mice were infected with parental EV71 or mouse-adapted virus (mEV71) and the mice survival rate was determined. (B) RD cells infected with mEV71 pre-incubated with PBS or LL-18 for 1 hr were determined for virus titer 24 h.p.i. ***, P<0.001. (C) ICR mice infected with mEV71 or mEV71 pre-incubated with the indicated amount of LL-18 were sacrificed at 1 d.p.i. and viral titers from muscle were determined. ns, not significant; ***, P<0.001. (TIF) Click here for additional data file.
# IFN-β = IFN-β production in RD cells (q-RT-PCR); type: cell-based, human
# Description: For real-time PCR, cells were treated as described, and cellular total RNA was isolated using the Cell Total RNA Isolation Kit (ForeGene, China) according to the manufacturer’s protocol. The cDNA was synthesized using the ProtoScript II First Strand cDNA Synthesis Kit (New England Biolabs). cDNA was then determined with 2×RealStar Green Fast Mixture (GenStar, China) with the following primers: […]
# Supplementary file ppat.1011967.s007.tif: S7 Fig Induction of IFN-β production by peptides. (A) RD cells treated with 1.5 μM LL-18 or LL-37 for indicated time and IFN-β production was detected by q-RT-PCR. (B) RD cells treated with EV71 viruses pre-treated with PBS or LL-18 for indicated time and IFN-β production was detected by q-RT-PCR. ns, not significant; **, P<0.01; ***, P<0.001. (TIF) Click here for additional data file.
sequence,measurement,setting,value
FRKSKEKIGKLFKRIVQRILDFLRNLV [LL-18],"inhibition of VP1 expression, virus-induced cell death, virus titer; peptide added after virus infection",EV71 virus,little inhibition
same,"inhibition of VP1 expression, virus-induced cell death, virus titer; peptide added before virus infection",EV71 virus,Potent inhibition
same,temperature of peak SYBR green fluorescence intensity (RNA release),EV71 virions,53 °C
same,survival rate of infected suckling mice,"[1]; 6-day-old ICR mice, mEV71 pre-incubated 1 hour with LL-18 (20mg/kg), intraperitoneal",could increase the sucking mouse survival rate
same,viral loads of brain and muscle,"[1]; 6-day-old ICR mice, mEV71 pre-incubated with LL-18 (20mg/kg), i.p., 1 d.p.i",significantly decreased the viral loads in both brain and muscle
same,inflammatory cell infiltration in muscle (H&E histology),"[1]; 6-day-old ICR mice, mEV71 with LL-18 (20mg/kg)",improved with the administration of LL-18
same,"viral load in muscle, dose finding","[1]; ICR mice, mEV71 pre-incubated with 20 mg/kg LL-18, 1 d.p.i. (S5C Fig)",could significantly reduce the viral load
same,interferon (IFN-β) production after pre-incubation of peptide with viruses,"IFN-β; RD cells treated with EV71 pre-treated with LL-18, q-RT-PCR (S7B Fig)",reduced its ability to induce interferon production
same,induction of interferon (IFN-β) production by peptide alone,"IFN-β; RD cells, 1.5 μM peptide, q-RT-PCR (S7A Fig)",could induce interferon production
